# From PMC10642967, “Identification of a carbohydrate recognition motif of purinergic receptors” (eLife, 2023)
# Changes are numbered by the printed parent chain.
# Assays:
# [1] = target: T1, P2Y12-F277A (Homo sapiens, UniProt Q9H244, F277A); test: Intracellular Ca2+ mobilization, HEK293 expressing P2Y12 F277A mutant; assay type: cell-based; settings: calcium mobilization, mean ± SEM
# T1 construct: HA (N); expressed in transfected cells; host or cells: HEK293
# Description: (§1) Intracellular Ca^2+ assays were carried out as follows.
# [2] = target: T2, human P2Y12 (Homo sapiens, UniProt Q9H244); test: Intracellular Ca2+ mobilization, HEK293 co-transfected with P2Y12 wild-type and Gαqi5; assay type: cell-based; settings: calcium mobilization, HEK293, P2Y12 WT + Gαqi5, mean ± SEM
# T2 construct: HA (N); expressed in transfected cells; host or cells: HEK293
# Description: as §1
# [3] = target: T3, P2Y12-E281A (Homo sapiens, UniProt Q9H244, E281A); test: Intracellular Ca2+ mobilization, HEK293 expressing P2Y12 E281A mutant; assay type: cell-based; settings: calcium mobilization, mean ± SEM
# T3 construct: HA (N); expressed in transfected cells; host or cells: HEK293
# Description: as §1
# [4] = target: T4, P2Y12-K80A (Homo sapiens, UniProt Q9H244, K80A); test: Intracellular Ca2+ mobilization, HEK293 expressing P2Y12 K80A mutant; assay type: cell-based; settings: calcium mobilization, mean ± SEM
# T4 construct: HA (N); expressed in transfected cells; host or cells: HEK293
# Description: as §1
# [5] = target: T5, P2Y12-D84A (Homo sapiens, UniProt Q9H244, D84A); test: Intracellular Ca2+ mobilization, HEK293 expressing P2Y12 D84A mutant; assay type: cell-based; settings: calcium mobilization, mean ± SEM
# T5 construct: HA (N); expressed in transfected cells; host or cells: HEK293
# Description: as §1
# [6] = target: T6, P2Y12-K280A (Homo sapiens, UniProt Q9H244, K280A); test: Intracellular Ca2+ mobilization, HEK293 expressing P2Y12 K280A mutant; assay type: cell-based; settings: calcium mobilization, mean ± SEM
# T6 construct: HA (N); expressed in transfected cells; host or cells: HEK293
# Description: as §1
# [7] = target: T7, human P2Y14 (Homo sapiens, UniProt Q15391); test: Intracellular Ca2+ mobilization, HEK293 co-transfected with P2Y14 wild-type and Gαqi5; assay type: cell-based; settings: calcium mobilization, HEK293, P2Y14 WT + Gαqi5, mean ± SEM
# T7 construct: HA (N); expressed in transfected cells; host or cells: HEK293
# T7 sequence (Q15391 1-338): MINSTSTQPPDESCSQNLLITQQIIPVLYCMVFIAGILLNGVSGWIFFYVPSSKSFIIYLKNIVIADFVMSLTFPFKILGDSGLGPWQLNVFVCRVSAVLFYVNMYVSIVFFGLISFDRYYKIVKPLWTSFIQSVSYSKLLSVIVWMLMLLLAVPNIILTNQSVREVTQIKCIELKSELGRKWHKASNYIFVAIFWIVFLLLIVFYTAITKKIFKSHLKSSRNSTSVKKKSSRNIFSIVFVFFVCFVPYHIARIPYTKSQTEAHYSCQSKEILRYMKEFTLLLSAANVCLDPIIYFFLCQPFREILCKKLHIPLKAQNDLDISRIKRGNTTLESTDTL
# [8] = target: T8, P2Y14-K77A (Homo sapiens, UniProt Q15391, K77A); test: Intracellular Ca2+ mobilization, HEK293 expressing P2Y14 K77A mutant; assay type: cell-based; settings: calcium mobilization, mean ± SEM
# T8 construct: HA (N); expressed in transfected cells; host or cells: HEK293
# T8 sequence (Q15391 1-338 K77A): T7 sequence (Q15391 1-338) with K77A
# [9] = target: T9, P2Y14-K277A (Homo sapiens, UniProt Q15391, K277A); test: cell-based
# T9 sequence (Q15391 1-338 K277A): T7 sequence (Q15391 1-338) with K277A
# [10] = target: T10, P2Y14-D81A (Homo sapiens, UniProt Q15391, D81A); test: Intracellular Ca2+ mobilization, HEK293 expressing P2Y14 D81A mutant; assay type: cell-based; settings: calcium mobilization, mean ± SEM
# T10 construct: HA (N); expressed in transfected cells; host or cells: HEK293
# T10 sequence (Q15391 1-338 D81A): T7 sequence (Q15391 1-338) with D81A
# [11] = target: T11, P2Y14-E278A (Homo sapiens, UniProt Q15391, E278A); test: Intracellular Ca2+ mobilization, HEK293 expressing P2Y14 E278A mutant; assay type: cell-based; settings: calcium mobilization, mean ± SEM
# T11 construct: HA (N); expressed in transfected cells; host or cells: HEK293
# T11 sequence (Q15391 1-338 E278A): T7 sequence (Q15391 1-338) with E278A
# T4 sequence (Q9H244 whole entry K80A): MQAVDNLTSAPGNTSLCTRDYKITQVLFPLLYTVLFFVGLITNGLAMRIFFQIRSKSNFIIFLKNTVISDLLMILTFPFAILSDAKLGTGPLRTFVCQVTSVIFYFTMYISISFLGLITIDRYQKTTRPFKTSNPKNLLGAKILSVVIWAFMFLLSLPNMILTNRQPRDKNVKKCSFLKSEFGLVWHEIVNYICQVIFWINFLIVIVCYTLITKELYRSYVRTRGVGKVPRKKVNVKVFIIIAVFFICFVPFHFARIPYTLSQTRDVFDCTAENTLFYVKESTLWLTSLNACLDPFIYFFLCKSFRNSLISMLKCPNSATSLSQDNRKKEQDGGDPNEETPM
# T1 sequence (Q9H244 whole entry F277A): as the sequence (Q9H244 whole entry K80A) above, with A80K, F277A counted along it
# T3 sequence (Q9H244 whole entry E281A): as the sequence (Q9H244 whole entry K80A) above, with A80K, E281A counted along it
# T2 sequence (Q9H244 whole entry): as the sequence (Q9H244 whole entry K80A) above, with A80K counted along it
# T6 sequence (Q9H244 whole entry K280A): as the sequence (Q9H244 whole entry K80A) above, with A80K, K280A counted along it
# T5 sequence (Q9H244 whole entry D84A): as the sequence (Q9H244 whole entry K80A) above, with A80K, D84A counted along it
Structure (SMILES),EC50 [1] [µM],EC50 [2] [µM],EC50 [3] [µM],EC50 [4] [µM],EC50 [5] [µM],EC50 [6] [µM],EC50 [7] [nM],EC50 [8] [µM],EC50 [9] [nM],EC50 [10] [nM],EC50 [11] [nM]
"Nc1ncnc2c1ncn2C1OC(COP(=O)(O)OP(=O)(O)OC2OC(CO)C(O)C(O)C2O)C(O)C1O (stereo not shown) [ADP-Man, ADP-mannose]",128 ± 17.6,12.3 ± 0.9,> 150,> 150,> 150,> 150,,,,,
"Nc1ncnc2c1ncn2C1OC(COP(=O)(O)OP(=O)(O)OC2OC(C(=O)O)C(O)C(O)C2O)C(O)C1O (stereo not shown) [ADP-GlcA, ADP-glucuronic acid]",5 ± 0.4,1.3 ± 0.1,28.2 ± 4.1,35.2 ± 0.5,9.4 ± 0.3,18.1 ± 3.3,,,,,
"Nc1ncnc2c1ncn2C1OC(COP(=O)(O)OP(=O)(O)OC2OC(CO)C(O)C(O)C2O)C(O)C1O (stereo not shown) [ADP-Glc, ADP-glucose]",15.4 ± 1.1,3.4 ± 0.4,75.3 ± 10.1,96.9 ± 14.4,29.3 ± 1.2,41.8 ± 3,,,,,

# Continued, values first:
EC50 [1] [µM],EC50 [2] [µM],EC50 [3] [µM],EC50 [4] [µM],EC50 [5] [µM],EC50 [6] [µM],EC50 [7] [nM],EC50 [8] [µM],EC50 [9] [nM],EC50 [10] [nM],EC50 [11] [nM],Structure (SMILES)
,,,,,,59.9 ± 4.8,> 3,> 3000,172 ± 9.8,38.2 ± 2.2,"O=C(O)C1OC(OP(=O)(O)OP(=O)(O)OCC2OC(n3ccc(=O)[nH]c3=O)C(O)C2O)C(O)C(O)C1O (stereo not shown) [UDP-GlcA, UDP-glucuronic acid]"
,,,,,,184 ± 11.8,> 3,549 ± 74.4,3000 ± 174,624 ± 102,"CC(=O)N[C@H]1[C@@H](OP(=O)(O)OP(=O)(O)OC[C@H]2O[C@@H](n3ccc(=O)[nH]c3=O)[C@H](O)[C@@H]2O)O[C@H](CO)[C@@H](O)[C@@H]1O [UDP-GlcNAc, UDP-N-acetylglucosamine]"
